Legend:
[1] = molecular target: T1, biotinylated pBR322-35mer detected with Avidix-AP (Bos taurus, UniProt P19111); assay: Half-time to maximum chemiluminescence, biotinylated DNA on membranes (Example XXVIII); conditions: 12.5 pg DNA, […] dioxetane in 0.1 M DEA, pH 10.0
T1 construct: purchased Tropix, Inc
Procedure: The performance of AMPPD and Cl-AMPPD on a nylon membrane was compared as follows: 12.5 picograms of biotinylated-pBR322-(35 mer) in 1 μL was spotted onto dry nylon membrane and crosslinked to the membrane with UV light. The membrane subsequently wetted with 1×SSC buffer, incubated with 0.2% casein, 0.1% Tween-20 in phosphate buffered saline (PBS) for 1 hour at room temperature, washed 4 times with 0.3% Tween-20 in PBS, washed twice in Substrate Buffer (0.1 M diethanolamine, 1 mM MgCl2, pH 10.0), and incubated for 5 minutes in 0.25 mM dioxetane in Substrate Buffer. In this fashion, two membranes: one incubated with AMPPD and the second with Cl-AMPPD, were generated. The membranes were then sealed in plastic, attached to the outside of a 12×75 mm glass test tube, and inserted into Turner Model 20-E luminometer equipped with a side-mounted photomultiplier detector and thermally equilibrated to 30° C. The chemiluminescence intensity was then monitored for 20-24 hours.
The half-times to the maximum chemiluminescence intensity obtained with AMPPD and Cl-AMPPD on PVDF and nylon membranes were calculated from data collected as described in Example XXVII, for the nylon membrane. For PVDF membrane, the revised protocol included the second Substrate Buffer wash followed by the membrane incubation for 5 minutes at room temperature in the Tropix NitroBlock™ reagent and a subsequent wash with Substrate Buffer prior to the dioxetane substrates addition. The half-times to the maximum chemiluminescent signal were calculated from the a plot of the logarithm (maximum chnemiluminescent signal minus signal at each time point) as a function of time and is shown in Table 9.
12.5 pg of biotinylated pBR322-35mer was detected with Avidix-AP and 0.24 mM dioxetane in 0.1 M DEA, pH 10.0.

[2] = molecular target: T2, alkaline phosphatase (Bos taurus, UniProt P19111); assay: Alkaline phosphatase detection limits, LabSystems Luminoskan (Example XXV); assay type: biochemical
Procedure: (§1) The detection means for alkaline phosphatase with different chemiluminescent 1,2-dioxetane substrates were determined as follows: Duplicates of serial dilutions (1 to 3) of alkaline phosphates were incubated at room temperature with 0.4 mM dioxetane in 0.1 M diethanolamine, 1 mM MgCl2, pH 10.0, containing 1 mg/ml of either of the polymeric enhancers Enhancer 1 or Enhancer 2, in […].
(§2) Following either a 5 or a 20 minute incubation with a substrate, the chemiluminescence intensity was measured as a 5 second integrated Relative Light Units (RLU) and plotted as in FIG. 10. […] The alkaline phosphatase concentrations at twice background were used as the detection limits in Table 5.
The luminometer used in this example was LabSystems Luminoskan microtiter plate reader.

[3] = molecular target: T2, alkaline phosphatase; assay: Detection limits for alkaline phosphatase, Berthold LB952T (Example XXII); assay type: biochemical; conditions: twice background
Procedure: as §1, §2

[4] = molecular target: T2, alkaline phosphatase; assay: Chemiluminescent signal-to-noise levels with enhancers (Example XXIV); assay type: biochemical
Procedure: The chemiluminescent signal to noise levels were obtained with 2.83×10^-13 M alkaline phosphatase and various R-substituted adamantyl 1,2-dioxetane phosphates in the presence of several enhancers. All measurements were performed in a Berthold LB952T luminometer at room temperature. First, the background chemiluminescence levels (signal in the absence of the enzyme) of each sample (in triplicate) were measured. Each sample consisted of 0.2 μmoles of dioxetane in 0.45 ml of 0.1 M diethanolamine, 1 mM MgCl2, pH 10.0, without or with 1 mg/ml of the indicated enhancer. Tubes were inserted into the luminometer and the luminescence intensity was measured. Next, the tubes were removed from the luminometer and alkaline phosphatase (50 μl containing 1.415×10^-16 moles) was added to each tube, and the luminescence intensity was measured at 5 and 20 minutes after substrate addition. The final concentration of dioxetane in each tube was 0.4 mM.
All enhancers used at 1 mg/ml in 0.1 M DEA, pH 10. Alkaline phosphatase concentration=2.83×10^-13 M. Measurements performed in a Berthold LB952T Luminometer.

[5] = molecular target: T3, avidin-alkaline phosphatase conjugate (Bos taurus, UniProt P19111); assay: Dot blot of biotinylated pBr 322 35-mer on nylon membrane, instant film (Example XIV); conditions: 0.25 mM, pH 10, nylon membrane, FIG. 11
T3 construct: purchased Sigma, Inc., St. Louis, Mo
Procedure: A strip of neutral BIODYNE A nylon membrane (Pall Corporation, Glen Cove, N.Y.) was dotted twice (side-by-side) with the following concentrations of biotinylated pBr 322 35-mer oligonucleotide probe (Synthetic Genetics, San Diego, Calif.):
Next, the membrane was blocked in 0.2% casein/0.1% Tween 20 detergent in aqueous phosphate buffered saline solution (PBS) for 1 hour, following which 1/5000 diluted avidin-alkaline phosphatase conjugate (Sigma, Inc., St. Louis, Mo.) in 0.2% casein in PBS was added. The membrane was then incubated for 30 minutes, washed twice (for 5 minutes each time) in 0.2% casein/0.1% Tween 20 detergent in PBS, washed four times (for 5 minutes each time) in 0.3% Tween 20 detergent in PBS, and twice (for 5 minutes each time) in aqueous 0.1M diethanolamine containing 1 mM magnesium chloride, pH 10.0.
The membrane was then cut up the middle to give two strips, each bearing one set of dots. One of the strips was incubated for 5 minutes in aqueous AMPPD solution (0.25 mM in 0.1M diethanolamine containing 1 mM magnesium chloride, pH 10), the other for 5 minutes in the corresponding chloroadamant-2'-ylidene compound (0.25 mM in the same buffer). The two strips were then placed in camera luminometers and exposed on Polaroid Type 612 instant black and white film.

[6] = molecular target: T2, alkaline phosphatase; assay: Alkaline phosphatase detection limits, Wilj microtiter plate luminometer (Example XXVI); assay type: biochemical; conditions: 23 MINUTE INCUBATION
[7] = molecular target: T2, alkaline phosphatase; assay: Half-time to plateau at low alkaline phosphatase concentration (Example XLI); assay type: biochemical; conditions: 0.4 mM dioxetane at pH 10.0, 31.5° C., 2.53 × 10^-13 M alkaline phosphatase
[8] = tested on: alkaline phosphatase ("AP"); conditions: cited from earlier work
[9] = PVDF membrane treated with NitroBlock
[10] = SAPPHIRE II, 5 MINUTE INCUBATION
[11] = SAPPHIRE II, 20 MINUTE INCUBATION
[12] = enhancer NONE, 5 min, alkaline phosphatase 2.83×10^-13 M

T2 sequence (P19111 20-506 limits assumed): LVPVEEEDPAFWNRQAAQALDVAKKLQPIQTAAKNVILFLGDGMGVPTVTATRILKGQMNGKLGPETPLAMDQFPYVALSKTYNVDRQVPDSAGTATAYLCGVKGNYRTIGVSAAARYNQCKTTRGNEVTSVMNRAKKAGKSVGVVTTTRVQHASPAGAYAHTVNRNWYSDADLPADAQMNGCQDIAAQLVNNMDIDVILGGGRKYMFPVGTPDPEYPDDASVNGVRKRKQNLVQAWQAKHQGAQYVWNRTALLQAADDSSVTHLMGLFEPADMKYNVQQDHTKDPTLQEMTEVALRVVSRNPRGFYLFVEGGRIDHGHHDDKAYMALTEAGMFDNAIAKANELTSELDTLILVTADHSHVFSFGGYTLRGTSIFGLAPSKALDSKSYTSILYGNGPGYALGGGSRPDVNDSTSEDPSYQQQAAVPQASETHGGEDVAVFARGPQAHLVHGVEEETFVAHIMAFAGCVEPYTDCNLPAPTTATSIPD
T1 sequence (P19111 20-506 limits assumed): as above
T3 sequence (P19111 20-506 limits assumed): as above
T3 sequence (P02701 25-152 partner): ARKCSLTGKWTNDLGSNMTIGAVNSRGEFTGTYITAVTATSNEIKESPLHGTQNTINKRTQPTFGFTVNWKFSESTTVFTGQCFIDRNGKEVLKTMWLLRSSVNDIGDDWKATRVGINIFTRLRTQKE

Compound	HALF-TIME TO MAXIMUM CHEMILUMINESCENCE ([1]; Nylon membrane)	HALF-TIME TO MAXIMUM CHEMILUMINESCENCE [1, 9]	Alkaline phosphatase detection limit (at 2× background) [2, 10]	Alkaline phosphatase detection limit (at 2× background) [2, 11]	Alkaline phosphatase detection limit (at 2× background) ([2]; SAPPHIRE, 5 MINUTE INCUBATION)	Alkaline phosphatase detection limit (at 2× background) ([2]; SAPPHIRE, 20 MINUTE INCUBATION)	Detection limit for alkaline phosphatase ([3]; ENHANCER 1, 5 MIN)	Detection limit for alkaline phosphatase ([3]; ENHANCER 1, 20 MIN)	Detection limit for alkaline phosphatase ([3]; ENHANCER 2, 5 MIN)	Detection limit for alkaline phosphatase ([3]; ENHANCER 2, 20 MIN)	chemiluminescent signal-to-noise level ([4]; EMERALD 1 1 mg/ml, 5 min)	chemiluminescent signal-to-noise level ([4]; EMERALD 1 1 mg/ml, 20 min)	chemiluminescent signal-to-noise level ([4]; EMERALD 2 1 mg/ml, 5 min)	chemiluminescent signal-to-noise level ([4]; EMERALD 2 1 mg/ml, 20 min)	chemiluminescent signal-to-noise level ([4]; SAPPHIRE 1 1 mg/ml, 5 min)	chemiluminescent signal-to-noise level ([4]; SAPPHIRE 1 1 mg/ml, 20 min)	chemiluminescent signal-to-noise level ([4]; SAPPHIRE 2 1 mg/ml, 5 min)	chemiluminescent signal-to-noise level ([4]; SAPPHIRE 2 1 mg/ml, 20 min)	Alkaline phosphatase detection limit (at 2× background) ([6]; SAPPHIRE II)	Alkaline phosphatase detection limit (at 2× background) ([6]; SAPPHIRE)	further results
COC1(c2cccc(OP(=O)(O)O)c2)OOC12C1CC3CC2CC(Cl)(C3)C1 (stereo not shown) [Cl-AMPPD, disodium 3-(4-methoxyspiro-[1,2-dioxetane-3,2'-(5'-chloro)tricyclo[3.3.1.1^3,7]decan]-4-yl) phenyl phosphate]	47.48 min	14.20 min	0.0008 pM	0.00043 pM	0.0014 pM	0.0005 pM	1.0 femtomoles/liter	0.6 femtomoles/liter	0.8 femtomoles/liter	0.4 femtomoles/liter	583	964	839	1280	577	827	1319	2221	0.00021 pM	0.000705 pM	chemiluminescent signal-to-noise level [4, 12]: 82; chemiluminescent signal-to-noise level ([4]; enhancer NONE, 20 min): 98; chemiluminescence intensity as compared to AMPPD [5]: improved chemiluminescence intensity
COC1(c2cccc(OP(=O)(O)O)c2)OOC12C1CC3CC2CC(O)(C3)C1 (single isomer, unassigned) [A-OH-AMPPD, disodium 3-(4-methoxyspiro-[1,2-dioxetane-3,2'-(5'-hydroxy)tricyclo[3.3.1.1^3,7]decan]-4-yl)phenyl phosphate]			0.0014 pM	0.00031 pM	0.0031 pM	0.0011 pM													0.0014 pM	0.0015 pM	HALF-TIME TO PLATEAU (min.) AL LOW ALK PHOS CONCENTRATION ([7]; listed as HO-AMPPD-A): 0.93 min
COC1(c2cccc(OP(=O)(O)O)c2)OOC12C1CC3CC(C1)CC2C3 (stereo not shown) [AMPPD, 3-(4-methoxyspiro[1,2-dioxetane-3,2'-triyclo[3.3.1.1^3,7]decan]-4-yl)phenyl phosphate, reference compound]	99.83 min	49.51 min	0.0025 pM	0.0011 pM	0.0038 pM	0.0014 pM	4.0 femtomoles/liter	1.4 femtomoles/liter	3.5 femtomoles/liter	1.1 femtomoles/liter	109	282	113	291	159	364	192	434	0.0013 pM	0.0019 pM	moles whose phosphoryloxy group is cleaved by a single mole of alkaline phosphatase per second [8]: 1,000-5,000 moles per second; HALF-TIME TO PLATEAU (min.) AL LOW ALK PHOS CONCENTRATION [7]: 1.97 min; chemiluminescent signal-to-noise level [4, 12]: 21; chemiluminescent signal-to-noise level ([4]; enhancer NONE, 20 min): 34
COC1(c2cccc(OP(=O)(O)O)c2)OOC12C1CC3CC2CC(O)(C3)C1 (single isomer, unassigned) [B-OH-AMPPD, disodium 3-(4-methoxyspiro-[1,2-dioxetane-3,2'-(5'-hydroxy)tricyclo[3.3.1.1^3,7]decan]-4-yl)phenyl phosphate]																					HALF-TIME TO PLATEAU (min.) AL LOW ALK PHOS CONCENTRATION ([7]; listed as HO-AMPPD-B): 1.03 min

Reference: patent publication US5326882A, “Chemiluminescent 3-(substituted Adamant-2'-Ylidene) 1,2-dioxetanes” (Tropix, Inc., priority 1992, dated 1994)
